{"source": "patent US20240299376A1", "about": "“METHOD OF TREATING A CONDITION USING A […] EFFECTIVE DOSE OF 1-(1-OXO-1,2-DIHYDROISOQUINOLIN-5-YL)-5-(TRIFLUOROMETHYL)-N-(2-(TRIFLUOROMETHYL)PYRIDIN-4-YL)-1H-PYRAZOLE-4-CARBOXAMIDE” (Janssen Pharmaceutica NV, priority 2021, published 2024)", "key": {"U2932 (A20/TAK1 mut)": {"test_system": "U2932 (A20/TAK1 mut)", "assay": "Anti-proliferative activity, DLBCL cell line panel", "type": "cell-based", "conditions": "Homo sapiens, U2932, 192 h; antiproliferation after 8 days of treatment"}, "[1]": {"test_system": "T cells derived from healthy donors", "assay": "CyTOF analysis of T cells stimulated with CD3/28", "type": "cell-based, human", "source_text": "After fixation and barcoding, samples were pooled per donor and stained using a panel of 32 metal-labelled antibodies for identification of phenotype and function of immune cell populations and acquired on a CyTOF® C5 system. After debarcoding and normalization, cell populations were either manually gated or clustered by spanning-tree progression of density-normalized events (SPADE) analysis using Cytobank® software.\nThese observations are consistent with the fluorescence-activated cell sorting (FACS) analysis data."}, "MALT1 substrate BCL10": {"test_system": "MALT1 substrate BCL10", "assay": "BCL10 Mesoscale assay of OCI-LY3 tumor samples after a single dose", "type": "in vivo, NSG mice", "conditions": "OCI-LY3 tumors", "protocol": "MALT1 protease activity results in the cleavage of negative regulators of the classical NF-κB pathway such as A20, CYLD, RelB, and BCL10. […] The assay measures un-cleaved BCL10 which is increased upon MALT1 inhibition. OCI-LY3 or OCI-LY10 tumors were crushed before lysis in Mammalian Protein Extraction Reagent buffer for 30 minutes at 4° C. Centrifugation of the lysate was done and supernatant kept for analysis in the MSD assay. MSD plates (small spot, goat anti-rabbit coated, MSD L45RA-1) were blocked for 1 hour with 3% Bovine serum Albumin (in Tris-buffered saline, 0.1% Tween 20) and labeled with BCL10 antibody (Abcam #33905) to capture the uncleaved BCL10. 25 μg of tumor lysates were transferred to the BCL 10-labeled MSD plate and incubated for 24 hours at 4° C. followed by 2-hour incubation with BCL10 antibody detecting cleaved/uncleaved BCL10 (ab93022) and 2-hour antibody detection. Plates were read on a SECTOR imager.\nAs a more direct PD readout, OCI-LY3 tumor samples were analyzed by a BCL 10 Mesoscale assay, looking for cleavage inhibition of the MALT1 substrate BCL10. The assay measures uncleaved BCL10 in tumor.\nTumor uncleaved BCL10 levels are graphed as the mean+SD.\nFor PD, when tumors reached 550-750 mm^3 animals were assigned randomly into the treatment groups and treated as presented in Table 5. Dose volumes were adjusted to individual body weights at 10 mL/kg. […]"}, "[2]": {"assay": "Oral bioavailability, 5 mg/kg solution in PEG400", "type": "in vivo, mice, rats, dogs, and monkeys", "conditions": "plasma, oral 5 mg/kg", "source_text": "(Data for mice, rats, and monkeys are not shown.)"}, "[3]": {"test_system": "human cytokine IL-10 in serum", "assay": "Serum IL-10 (MSD assay) after a single dose in OCI-LY10 tumor-bearing NSG mice", "type": "in vivo", "protocol": "NF-κB signaling regulates the secretion of multiple cytokines, including interleukin-10 (IL-10). MALT1 inhibition results in a decrease of IL-10 transcription and translation as well as secretion. Levels of the human cytokine IL-10 were measured in the serum of OCI-LY3 or OCI-LY10 ABC-DLBCL tumor bearing mice using a Mesoscale Discovery assay (MSD). 25 μL of mouse serum was transferred to an MSD plate (V-Plex Proinflammation Panel I (human) kit) and incubated together with 25 μL diluent 2 (MSD; R51BB-3) for 2 hours at RT followed by a 2-hour incubation with IL-10 antibody solution. Plates were read on a SECTOR imager. Serum human IL-10 levels were correlated to serum compound concentration.\nSerum samples were collected at 2, 12, and 24 hours post dose and tumor samples were collected 24 hours post dose. Human IL-10 was measured in serum samples using a Mesoscale assay.\nSerum IL-10 levels are graphed as the mean+/−standard deviation.\nFor PD, when tumors reached 550-750 mm^3 animals were assigned randomly into the treatment groups and treated as presented in Table 5. Dose volumes were adjusted to individual body weights at 10 mL/kg. For both PD studies, serum was collected at 2 and 12 hours post treatment from the retro-orbital sinus. At 24 hours post treatment, animals were bled via decapitation and tumors were excised, weighed, and divided for bioanalysis and ex vivo PD analysis. Blood was centrifuged at 10,000 rpm and serum divided for bioanalysis and PD analysis."}, "Single IV dose plasma PK": {"assay": "Single IV dose plasma PK", "type": "in vivo, mouse", "protocol": "Single intravenous (IV) dose PK was conducted in mice (two strains), rats, monkeys, and dogs at a dose of 1 mg/kg in 70% PEG400 (PEG400/water 70:30) by bolus injection. The time course for plasma sample was optimized to fully characterize the disposition profile in each species. PK analysis was by non-compartmental method."}, "[4]": {"conditions": "male, plasma, Mouse, CD-1, 3M, 1 mg/kg IV in 70% PEG400, mean"}, "[5]": {"conditions": "male, plasma, Mouse, NSG, 3M, 1 mg/kg IV in 70% PEG400, mean"}}, "note": "pIC50: −log10 of the molar value. Read-outs that look alike come from different tables or passages of the source."}
{"compound": "O=C(Nc1ccnc(C(F)(F)F)c1)c1cnn(-c2cccc3c(=O)[nH]ccc23)c1C(F)(F)F", "note": "[Compound A, 1-(1-oxo-1,2-dihydroisoquinolin-5-yl)-5-(trifluoromethyl)-N-[2-(trifluoromethyl)pyridin-4-yl]-1H-pyrazole-4-carboxamide]", "values": [{"measurement": "pIC50", "setting": "U2932 (A20/TAK1 mut)", "result": 5.41}, {"measurement": "generation of Treg cells following CD3/28 stimulation", "setting": "[1]; 4 days, CyTOF", "result": "dose-dependently inhibited the generation of CD4^+CD25^+CD1271^lowFoxP3^hi cells"}, {"measurement": "number of CD8+ T cells", "setting": "[1]; 4 days, CyTOF", "result": "no strong effect on the number of CD8^+ T cells was observed"}, {"measurement": "expression of TIM3", "setting": "[1]; CD4+ and CD8+ T cells, CyTOF", "result": "No decrease"}, {"measurement": "expression of exhaustion markers PD-1, CTLA4, LAG3", "setting": "[1]; CD8+ T cells, CyTOF", "result": "decreased on CD8^+ T cells"}, {"measurement": "activation of CD8+ T cells", "setting": "[1]; CD69+CD25+ cells following CD3/28 stimulation", "result": "reduced"}, {"measurement": "dose giving maximum levels of uncleaved BCL10", "setting": "MALT1 substrate BCL10", "result": "≥ 10", "unit": "mg/kg"}, {"measurement": "fraction of uncleaved BCL10 in tumor", "setting": "MALT1 substrate BCL10", "result": "dose-dependently increased the fraction of uncleaved BCL10"}, {"measurement": "bioavailability", "setting": "[2]; Sprague-Dawley, rat, rats", "result": 51.2, "unit": "%"}, {"measurement": "bioavailability", "setting": "[2]; beagle, dog, dogs", "result": 100, "unit": "%"}, {"measurement": "bioavailability", "setting": "[2]; mouse, rat, dog, monkey, all species (mice, rats, dogs, monkeys)", "result": "> 50", "unit": "%"}, {"measurement": "effect of adding precipitation inhibitor on exposure and PD", "setting": "[3]; 100 mg/kg plus precipitation inhibitor PVP/VA64, 24 hours", "result": "increased exposures correlating to increased PD shutdown at 24 hours"}, {"measurement": "inhibition or reduction of serum IL-10", "setting": "[3]; single oral dose 3 mg/kg, 12 hours post dose", "result": "intermediate inhibition or reduction"}, {"measurement": "inhibition or reduction of serum IL-10", "setting": "[3]; single oral dose 10 mg/kg, 12 hours post dose", "result": "strong inhibition or reduction"}, {"measurement": "inhibition or reduction of serum IL-10", "setting": "[3]; single oral dose 30 mg/kg, 12 hours post dose", "result": "completely inhibited or reduced serum IL-10 levels"}, {"measurement": "inhibition or reduction of serum IL-10", "setting": "[3]; single oral dose 100 mg/kg, 12 hours post dose", "result": "completely inhibited or reduced serum IL-10 levels"}, {"measurement": "inhibition or reduction of serum IL-10", "setting": "[3]; single oral dose, 24 hours post dose", "result": "rebounded at 24 hours post dose"}, {"measurement": "Vd", "setting": "Single IV dose plasma PK; CD-1 and NSG (mouse), Sprague-Dawley (rat), beagle (dog), plasma, similar across all species (mouse, rat, monkey, dog), IV 1 mg/kg, read-out: apparent volume of distribution at steady state", "result": "~1", "unit": "L/kg"}, {"measurement": "AUC(0-inf)", "setting": "Single IV dose plasma PK; [4]", "result": 12200, "unit": "ng·h/mL"}, {"measurement": "C0", "setting": "Single IV dose plasma PK; [4]", "result": 940, "unit": "ng/mL"}, {"measurement": "clearance", "setting": "Single IV dose plasma PK; [4]", "result": 1.3, "unit": "mL/min/kg"}, {"measurement": "Vd", "setting": "Single IV dose plasma PK; male, plasma, Mouse, CD-1, 3M, 1 mg/kg IV in 70% PEG400, mean, read-out: Vdss", "result": 1.4, "unit": "L/kg"}, {"measurement": "AUC(0-inf)", "setting": "Single IV dose plasma PK; [5]", "result": 5490, "unit": "ng·h/mL"}, {"measurement": "C0", "setting": "Single IV dose plasma PK; [5]", "result": 1130, "unit": "ng/mL"}, {"measurement": "clearance", "setting": "Single IV dose plasma PK; [5]", "result": 3.04, "unit": "mL/min/kg"}, {"measurement": "half-life", "setting": "Single IV dose plasma PK; [5]", "result": 5.28, "unit": "h"}, {"measurement": "Vd", "setting": "Single IV dose plasma PK; male, plasma, Mouse, NSG, 3M, 1 mg/kg IV in 70% PEG400, mean, read-out: Vdss", "result": 1.23, "unit": "L/kg"}, {"measurement": "CL as fraction of liver blood flow (LBF)", "setting": "Single IV dose plasma PK; mouse, LBF 90 mL/min/kg", "result": 1.4, "unit": "%"}]}
